Laboratory results as given in ChEMBL document CHEMBL5365536, “Synthesis of mizoribine prodrugs and their in vivo evaluation as immunosuppressive agents” (2023).

Experiments:
Format in all cases: functional
[1] = test system: Mus musculus; test: Immunosuppressive activity in anti-CD3-stimulated mouse assessed as reduction in IL-2 level in whole blood at 25 mg/kg, po measured after 4 hr by flow cytometry analysis; set-up: scale not given: the % may be the effect or the level left
[2] = test system: Mus musculus; test: Immunosuppressive activity in anti-CD3-stimulated mouse assessed as reduction in IL-2 level in whole blood at 25 mg/kg, po measured after 1 hr by flow cytometry analysis; set-up: scale not given: the % may be the effect or the level left
[3] = test system: Mus musculus; test: Immunosuppressive activity in anti-CD3-stimulated mouse assessed as reduction in IL-2 level in whole blood at 25 mg/kg, po measured after 8 hr by flow cytometry analysis; set-up: scale not given: the % may be the effect or the level left
[4] = test system: Mus musculus; test: Immunosuppressive activity in anti-CD3-stimulated mouse assessed as reduction in IL-2 level in whole blood at 40 mg/kg, po measured after 4 hrs by flow cytometry analysis; set-up: scale not given: the % may be the effect or the level left
[5] = test system: Mus musculus; test: Immunosuppressive activity in BALB/c mouse allografted with C57 mouse cardiac tissue assessed as suppression of graft rejection by measuring graft median survival time at 83 mg/kg, po in presence of tacrolimus
[6] = test system: Mus musculus; test: Immunosuppressive activity in anti-CD3-stimulated mouse assessed as reduction in IL-2 level in whole blood at 40 mg/kg, po measured after 8 hrs by flow cytometry analysis; set-up: scale not given: the % may be the effect or the level left
[7] = test system: Mus musculus; test: Immunosuppressive activity in BALB/c mouse allografted with C57 mouse cardiac tissue assessed as suppression of graft rejection by measuring graft median survival time at 83 mg/kg, po
[8] = test system: Mus musculus; test: Immunosuppressive activity in anti-CD3-stimulated mouse assessed as reduction in IL-2 level in whole blood at 40 mg/kg, po measured after 1 hr by flow cytometry analysis; set-up: scale not given: the % may be the effect or the level left
[9] = test system: Mus musculus; test: Immunosuppressive activity in anti-CD3-stimulated mouse assessed as reduction in IL-2 level in whole blood at 50 mg/kg, po measured after 4 hrs by flow cytometry analysis; set-up: scale not given: the % may be the effect or the level left
[10] = test system: Mus musculus; test: Immunosuppressive activity in anti-CD3-stimulated mouse assessed as reduction in IL-2 level in whole blood at 50 mg/kg, po measured after 1 hr by flow cytometry analysis; set-up: scale not given: the % may be the effect or the level left
[11] = test system: Mus musculus; test: Immunosuppressive activity in anti-CD3-stimulated mouse assessed as reduction in IL-2 level in whole blood at 50 mg/kg, po measured after 8 hr by flow cytometry analysis; set-up: scale not given: the % may be the effect or the level left
[12] = test system: Mus musculus; test: Immunosuppressive activity in anti-CD3-stimulated mouse assessed as reduction in IL-2 level in whole blood at 65 mg/kg, po measured after 1 hr by flow cytometry analysis; set-up: scale not given: the % may be the effect or the level left
[13] = test system: Mus musculus; test: Immunosuppressive activity in anti-CD3-stimulated mouse assessed as reduction in IL-2 level in whole blood at 65 mg/kg, po measured after 4 hrs by flow cytometry analysis; set-up: scale not given: the % may be the effect or the level left
[14] = test system: Mus musculus; test: Immunosuppressive activity in anti-CD3-stimulated mouse assessed as reduction in IL-2 level in whole blood at 65 mg/kg, po measured after 8 hrs by flow cytometry analysis; set-up: scale not given: the % may be the effect or the level left
[15] = test system: Mus musculus; test: Immunosuppressive activity in BALB/c mouse allografted with C57 mouse cardiac tissue assessed as suppression of graft rejection by measuring graft median survival time at 4 mg/kg, IM
[16] = test system: Mus musculus; test: Immunosuppressive activity in anti-CD3-stimulated mouse assessed as reduction in IL-2 level in whole blood at 55 mg/kg, po measured after 1 hr by flow cytometry analysis; set-up: scale not given: the % may be the effect or the level left
[17] = test system: Mus musculus; test: Immunosuppressive activity in BALB/c mouse allografted with C57 mouse cardiac tissue assessed as suppression of graft rejection by measuring graft median survival time at 112 mg/kg, po in presence of tacrolimus
[18] = test system: Mus musculus; test: Immunosuppressive activity in BALB/c mouse allografted with C57 mouse cardiac tissue assessed as suppression of graft rejection by measuring graft median survival time at 112 mg/kg, po
[19] = test system: Mus musculus; test: Immunosuppressive activity in anti-CD3-stimulated mouse assessed as reduction in IL-2 level in whole blood at 55 mg/kg, po measured after 4 hrs by flow cytometry analysis; set-up: scale not given: the % may be the effect or the level left
[20] = test system: Mus musculus; test: Immunosuppressive activity in anti-CD3-stimulated mouse assessed as reduction in IL-2 level in whole blood at 55 mg/kg, po measured after 8 hrs by flow cytometry analysis; set-up: scale not given: the % may be the effect or the level left

`NC(=O)c1ncn([C@@H]2O[C@H](CO)[C@@H](O)[C@H]2O)c1O` [MIZORIBINE] gave an Activity [1] of 8.6%, an Activity [2] of 55.6% and an Activity [3] of 7.3%.

`CC(C)(C)C(=O)NC(=O)c1ncn([C@@H]2O[C@H](COC(=O)C(C)(C)C)[C@@H](O)[C@H]2O)c1O` showed an Activity [4] of 64.4%, an MST [5] of 55 days and an Activity [6] of 61.3%. It also gave an MST [7] of 11 days and an Activity [8] of 19.4%.

`COc1c(C)c2c(c(O)c1C/C=C(\C)CCC(=O)OCCN1CCOCC1)C(=O)OC2` [MYCOPHENOLATE MOFETIL] gave an Activity [9] of 52.3%, an Activity [10] of 3.4% and an Activity [11] of 81.7%.

`CC(C)CCOC(=O)C[C@H](NP(=O)(OC[C@H]1O[C@@H](n2cnc(C(N)=O)c2O)[C@H](O)[C@@H]1O)Oc1ccccc1)C(=O)OCCC(C)C` (stereo not given in full) was tested, and the Activity [12] was 14.7%, the Activity [13] was 18.3% and the Activity [14] was 17.5%.

`C=CC[C@@H]1/C=C(\C)C[C@H](C)C[C@H](OC)[C@H]2O[C@@](O)(C(=O)C(=O)N3CCCC[C@H]3C(=O)O[C@H](/C(C)=C/[C@@H]3CC[C@@H](O)[C@H](OC)C3)[C@H](C)[C@@H](O)CC1=O)[C@H](C)C[C@@H]2OC` [TACROLIMUS ANHYDROUS] gave an MST [15] of 8 days.

`NC(=O)c1ncn([C@@H]2O[C@H](COC(=O)[C@@H](N)CC(=O)OCc3ccccc3)[C@@H](O)[C@H]2O)c1O.O=C(O)C(F)(F)F` was tested, and the Activity [16] was 77%, the MST [17] was 15.5 days and the MST [18] was 11 days. For the same compound, the Activity [19] was 32.7% and the Activity [20] was 27.7%.
